This is an account of results in US8372857B2, “Substituted 4-hydroxypyrimidine-5-carboxamides” (Merck Sharp & Dohme Corp., priority 2009, dated 2013).

The target in one series is CYP3A4 (Homo sapiens, UniProt P08684). The series can be described thus: Cytochrome P450 inhibition, CYP3A4. It is filed as in vitro ADME. As to the method:
(§1) The compounds of Example 1 and also Example 187 of PCT/US09/036,501 were tested for their activity at the cytochrome P450 enzymes CYP3A4 and CYP2C8. Utilizing procedures similar to that described by Walasky et al. and the references therein, the following human IC50 values were determined (Walsky, R. L.; Obach, R. S. Drug Metab. Dispos. 2004, 32, 647-660.)

Another series addresses T1, PHD2 (Homo sapiens, UniProt Q9GZT9).
T1 construct: FLAG-tagged full length PHD2 expressed in and purified from baculovirus-infected Sf9 cells; FLAG; made in house; host or cells: baculovirus-infected Sf9 cells
The series can be described thus: PHD2 / HIF-1α peptide time resolved fluorescence assay. The class given is biochemical. As to the method:
To each well of a 96-well plate was added 1 μL of test compound in DMSO and 20 μl of assay buffer (50 mM Tris pH 7.4/0.01% Tween-20/0.1 mg/ml bovine serum albumin/10 μM ferrous sulfate/1 mM sodium ascorbate/20 μg/ml catalase) containing 0.15 μg/ml FLAG-tagged full length PHD2 expressed in and purified from baculovirus-infected Sf9 cells. After a 30 min preincubation at room temperature, the enzymatic reactions were initiated by the addition of 4 μL of substrates (final concentrations of 0.2 μM 2-oxoglutarate and 0.5 μM HIF-1α peptide biotinyl-DLDLEMLAPYIPMDDDFQL). After 2 hr at room temperature, the reactions were terminated and signals were developed by the addition of a 25 μL quench/detection mix to a final concentration of 1 mM ortho-phenanthroline, 0.1 mM EDTA, 0.5 nM anti-(His)6 LANCE reagent (Perkin-Elmer Life Sciences), 100 nM AF647-labeled streptavidin (Invitrogen), and 2 μg/ml (His)-6-VIAL complex (S. Tan(2001) Protein Expr. Purif. 21, 224-234). The ratio of time resolved fluorescence signals at 665 and 620 nm was determined, and percent inhibition was calculated relative to an uninhibited control sample run in parallel.

The nature of series [1]: Pharmacokinetics after intravenous dosing in dogs (plasma concentration by LC-MS/MS). It is filed as in vivo. The note with it: beagle, dog, dogs (beagles), 0.5 mg/kg intravenous. As to the method:
The pharmacokinetics and cytochrome P450 activity of Example 1 (E-1) were evaluated, and compared to that of Example 187 disclosed in International PCT application PCT/US09/036,501, filed Mar. 9, 2009. Compounds were formulated in a 1:1 solution (by volume) of PEG200: water and dosed at 0.5 mg/kg of body weight. The formulation was dosed intravenously in 2 dogs (beagles), and blood was drawn at the following time points (hours) 0.08, 0.25, 0.5, 1, 2, 4, 6, 8, 24. The plasma concentrations shown in the table below were determined by protein precipitation followed by liquid chromatography—tandem mass spectrometry analysis.

A further series deals with T2, CYP2C8 (Homo sapiens, UniProt P10632).
T2 sequence (P10632 1-490): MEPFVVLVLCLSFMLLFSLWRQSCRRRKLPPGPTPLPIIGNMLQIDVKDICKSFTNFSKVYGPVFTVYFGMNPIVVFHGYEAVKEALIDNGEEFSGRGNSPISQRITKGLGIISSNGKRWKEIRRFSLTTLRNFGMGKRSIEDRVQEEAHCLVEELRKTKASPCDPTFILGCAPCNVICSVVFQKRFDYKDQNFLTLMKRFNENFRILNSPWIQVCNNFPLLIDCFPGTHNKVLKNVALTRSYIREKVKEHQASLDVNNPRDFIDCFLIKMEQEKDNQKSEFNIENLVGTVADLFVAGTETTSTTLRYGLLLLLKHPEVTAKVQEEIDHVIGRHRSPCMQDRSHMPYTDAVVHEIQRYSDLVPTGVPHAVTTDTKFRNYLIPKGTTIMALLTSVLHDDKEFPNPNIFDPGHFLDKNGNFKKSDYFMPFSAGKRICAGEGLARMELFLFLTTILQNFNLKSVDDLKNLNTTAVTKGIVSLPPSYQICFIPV
The experiment in a line: Cytochrome P450 inhibition, CYP2C8. The class given is in vitro ADME. As to the method: as §1

Structures are written as SMILES.

T1 sequence (Q9GZT9 whole entry): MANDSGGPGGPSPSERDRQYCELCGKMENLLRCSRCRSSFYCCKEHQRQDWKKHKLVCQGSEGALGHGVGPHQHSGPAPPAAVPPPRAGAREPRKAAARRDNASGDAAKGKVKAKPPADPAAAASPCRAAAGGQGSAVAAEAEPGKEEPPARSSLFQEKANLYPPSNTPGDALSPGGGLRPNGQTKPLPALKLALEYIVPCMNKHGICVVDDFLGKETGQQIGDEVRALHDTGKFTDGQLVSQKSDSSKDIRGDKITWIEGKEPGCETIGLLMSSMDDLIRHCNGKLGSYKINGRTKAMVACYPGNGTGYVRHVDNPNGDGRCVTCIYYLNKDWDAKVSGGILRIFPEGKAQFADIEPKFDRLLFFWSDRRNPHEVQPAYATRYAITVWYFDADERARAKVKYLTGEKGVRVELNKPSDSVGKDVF
CYP3A4, sequence (P08684 whole entry): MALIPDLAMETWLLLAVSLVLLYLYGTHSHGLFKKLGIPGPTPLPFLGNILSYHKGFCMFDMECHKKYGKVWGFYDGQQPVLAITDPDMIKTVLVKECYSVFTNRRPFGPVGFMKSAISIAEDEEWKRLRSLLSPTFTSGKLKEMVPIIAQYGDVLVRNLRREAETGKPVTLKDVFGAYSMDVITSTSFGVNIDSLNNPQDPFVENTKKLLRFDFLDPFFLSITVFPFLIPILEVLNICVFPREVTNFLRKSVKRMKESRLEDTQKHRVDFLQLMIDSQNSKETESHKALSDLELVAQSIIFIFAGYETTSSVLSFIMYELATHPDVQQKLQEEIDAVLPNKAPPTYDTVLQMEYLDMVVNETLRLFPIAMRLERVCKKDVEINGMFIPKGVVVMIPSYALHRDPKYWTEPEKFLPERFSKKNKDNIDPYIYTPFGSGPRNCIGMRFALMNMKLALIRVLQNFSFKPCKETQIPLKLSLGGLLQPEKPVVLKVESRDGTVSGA

Broadly, the IC50 is the concentration needed to halve the response being measured. A word on the MRT: it is a mean duration of stay, worked out from the concentration-time curve. The clearance is the rate of elimination divided by the concentration. Take `COc1ccc(-c2ccc(C(C)(C)NC(=O)c3cnc(-c4cccnn4)nc3O)cn2)cc1` [Example 1, 4-Hydroxy-N-{1-[6-(4-methoxyphenyl)pyridin-3-yl]-1-methylethyl}-2-pyridazin-3-ylpyrimidine-5-carboxamide]: the IC50 against CYP3A4 is more than 50 µM; at PHD2 (read-out: PHD2 binding activity expressed as IC50), not above 0.01 µM; at CYP2C8, 49.5 µM. On PHD2 (general range statement, units within the value), the “IC50, inhibition of the interaction between PHD2 and a HIF peptide” value lay within 0.0001 to 10 µM. The mean residence time (MRT) in series [1] is 6.57 h. The same compound had a clearance in series [1] of 0.149 L/h/kg. For the same compound, the concentration at 0.08 h in series [1] (0.08 hours) is 1.5 µM. For the same compound, the concentration at 0.25 h in series [1] (0.25 hours) came to 1.15 µM. In series [1] (0.50 hours), this compound had a concentration at 0.5 h of 1.11 µM. Further, the concentration at 1 h in series [1] (1.00 hours) is 0.944 µM. The same compound registered a concentration at 2 h in series [1] (2.00 hours) of 0.754 µM. Besides, in series [1] (4.00 hours), the concentration at 4 h was determined as 0.581 µM. In series [1] (6.00 hours), this compound had a concentration at 6 h of 0.374 µM. For the same compound, in series [1] (8.00 hours), the concentration at 8 h amounted to 0.475 µM. Further, the concentration at 24 h in series [1] (24.00 hours) was 0.023 µM. For the same compound, the half-life in series [1] (read-out: T ½ (converted)) was 4.09 h.
